Test [1] has as its target T1, VHL (Homo sapiens, UniProt P40337).
T1 construct: Cells stably expressing the BRD4BD2-GFP with mCherry reporter (40) were seeded; endogenous in cells
Briefly: Cellular VHL engagement assay (BRD4BD2-GFP / mCherry reporter cells). The class given is cell-based. As to conditions: with 250 nM AT1, 5 h. On the procedure:
Cells stably expressing the BRD4BD2-GFP with mCherry reporter (40) were seeded at 30-50% confluency in 384-well plates with 50 μL per well of FluoroBrite™ DMEM media (Thermo Fisher Scientific, A18967) supplemented with 10% FBS a day before compound treatment. Compounds and 250 nM AT1((2S,4R)-1-(2R)-2-Acetamido-3-[[6-[2-[(6S)-4-(4-chlorophenyl)-2,3,9-trimethyl-6H-thieno[3,2-f][1,2,4]triazolo[4,3-a][1,4]diazepin-6-yl]acetamido]hexyl]thio]-3-methylbutanoyl]-4-hydroxy-N-[4-(4-methylthiazol-5-yl)benzyl)pyrrolidinine-2-carboxamide) were dispensed using a D300e Digital Dispenser (HP), normalized to 0.5% DMSO, and incubated with the cells for 5 h. The assay plate was imaged immediately using an Acumen® High Content Imager (TTP Labtech) with 488 nm and 561 nm lasers in a […] grid per well format. The resulting images were analyzed using CellProfiler™.
A series of image analysis steps (an ‘image analysis pipeline’) was constructed. First, the red and green channels were aligned and cropped to target the middle of each well (to avoid analysis of the heavily clumped cells at the edges). A background illumination function was calculated for both red and green channels of each well individually and subtracted to correct for illumination variations across the 384-well plate from various sources of error. An additional step was then applied to the green channel to suppress the analysis of large auto fluorescent artifacts and enhance the analysis of cell specific fluorescence by way of selecting for objects under a given size (30 A.U.) and with a given shape (speckles). mCherry-positive cells were then identified in the red channel by filtering for objects 8-60 pixels in diameter and by using intensity to distinguish between clumped objects. The green channel was then segmented into GFP positive and negative areas and objects were labeled as GFP positive if at least 40% of it overlapped with a GFP positive area. The fraction of GFP-positive cells/mCherry-positive cells in each well was then calculated, and the green and red images were rescaled for visualization.

The target of test [2] is HDAC3 (Homo sapiens, UniProt O15379). Nature of the test: Change in cellular protein abundance (TMT proteomics) in Kelly cells. The class given is cell-based. On the set-up: relative change in relative protein abundance with treatment of Kelly cells; endogenous in cells; host or cells: Kelly cells. Conditions: scatter plots FIG. 1 and FIG. 3. As to the method: Lysis buffer (8 M Urea, 50 mM NaCl, 50 mM 4-(2hydroxyethyl)-1-piperazineethanesulfonic acid (EPPS) pH 8.5, protease and phosphatase inhibitors from Roche®) were added to the cell pellets and homogenized by 20 passes through a 21 gauge (1.25 in. long) needle to achieve a cell lysate with a protein concentration between 1-4 mg mL-1. A micro-BCA assay (Pierce™) was used to determine the final protein concentration in the cell lysate. 200 μg of protein for each sample were reduced and alkylated as described in Donovan et al., Elife 7:e38430 (2018).
Proteins were precipitated using methanol/chloroform. Four volumes of methanol were added to the cell lysate, followed by one volume of chloroform, and finally three volumes of water. The mixture was vortexed and centrifuged to separate the chloroform phase from the aqueous phase. The precipitated protein was washed with three volumes of methanol, centrifuged and the resulting washed precipitated protein was allowed to air dry. The precipitated protein was resuspended in 4 M Urea, 50 mM HEPES pH 7.4, followed by dilution to 1 M urea with the addition of 200 mM EPPS, pH 8. Proteins were first digested with LysC (1:50; enzyme:protein) for 12 hours at room temperature. The LysC digestion was diluted to 0.5 M Urea with 200 mM EPPS pH 8 followed by digestion with trypsin (1:50; enzyme:protein) for 6 hours at 37° C. Tandem mass tag (TMT) reagents (Thermo Fisher Scientific) were dissolved in anhydrous acetonitrile (ACN) according to manufacturer's instructions.
Anhydrous ACN was added to each peptide sample to a final concentration of 30% v/v, and labeling was induced with the addition of TMT reagent to each sample at a ratio of 1:4 peptide:TMT label. The 10-plex labeling reactions were performed for 1.5 hours at room temperature and the reaction quenched by the addition of hydroxylamine to a final concentration of 0.3% for 15 minutes at room temperature. The sample channels were combined at a 1:1:1:1:1:1:1:1:1:1:1 ratio, desalted using Cis solid phase extraction cartridges (Waters®) and analyzed by LC-MS for channel ratio comparison. Samples were then combined using the adjusted volumes determined in the channel ratio analysis and dried down in a speed vacuum. The combined sample was then resuspended in 1% formic acid, and acidified (pH 2-3) before being subjected to desalting with C18 SPE (Sep-Pak®, Waters®). Samples were then offline fractionated into 96 fractions by high pH reverse-phase HPLC (Agilent® LC1260) through an aeris peptide xb-c18 column (Phenomenex®) with mobile phase A containing 5% acetonitrile and 10 mM NH4HCO3 in LC-MS grade H2O, and mobile phase B containing 90% acetonitrile and 10 mM NH4HCO3 in LC-MS grade H2O (both pH 8.0). The 96 resulting fractions were then pooled in a non-continuous manner into 24 fractions and these fractions were used for subsequent mass spectrometry analysis.
Data were collected using an Orbitrap Fusion™ Lumos™ mass spectrometer (Thermo Fisher Scientific, San Jose, Calif., USA) coupled with a Proxeon EASY-nLC™ 1200 LC pump (Thermo Fisher Scientific). Peptides were separated on an EasySpray™ ES803 75 μm inner diameter microcapillary column (ThermoFisher Scientific).
Each analysis used an MS3-based TMT method as described previously. The data were acquired using a mass range of m z 340-1350, resolution 120,000, automatic gain control (AGC) target 1×10^6, maximum injection time 100 ms, dynamic exclusion of 120 seconds for the peptide measurements in the Orbitrap Fusion™ Lumos™ mass spectrometer. Data dependent MS2 spectra were acquired in the ion trap with a normalized collision energy (NCE) set at 55%, AGC target set to 1.5×10^5 and a maximum injection time of 150 ms. […]

SMILES strings stand for the structures.

Chain of HDAC3 (O15379 whole entry): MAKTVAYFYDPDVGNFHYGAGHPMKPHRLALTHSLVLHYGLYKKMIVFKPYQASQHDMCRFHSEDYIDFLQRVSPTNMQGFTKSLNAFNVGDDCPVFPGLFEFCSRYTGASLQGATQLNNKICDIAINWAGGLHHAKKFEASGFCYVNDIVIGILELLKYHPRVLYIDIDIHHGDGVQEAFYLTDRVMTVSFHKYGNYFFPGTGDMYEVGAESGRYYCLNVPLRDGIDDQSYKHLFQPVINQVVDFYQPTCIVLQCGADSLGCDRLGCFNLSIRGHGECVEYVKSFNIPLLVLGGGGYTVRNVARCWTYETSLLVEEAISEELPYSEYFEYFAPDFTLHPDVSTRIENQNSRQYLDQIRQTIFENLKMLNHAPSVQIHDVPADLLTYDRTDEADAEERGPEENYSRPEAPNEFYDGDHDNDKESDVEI
T1 sequence (P40337 whole entry, species assumed): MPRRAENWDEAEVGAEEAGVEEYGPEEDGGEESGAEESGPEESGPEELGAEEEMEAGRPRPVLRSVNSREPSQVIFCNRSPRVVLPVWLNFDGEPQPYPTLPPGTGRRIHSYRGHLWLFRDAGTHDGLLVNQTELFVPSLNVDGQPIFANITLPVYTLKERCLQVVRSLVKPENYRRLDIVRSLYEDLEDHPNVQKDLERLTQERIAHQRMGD

Compound `Cc1ncsc1-c1ccc([C@H](C)NC(=O)[C@@H]2C[C@@H](O)CN2C(=O)[C@@H](NC(=O)CCOCCOCCOCCN(CCc2c[nH]c3ccccc23)Cc2ccc(/C=C/C(=O)NO)cc2)C(C)(C)C)cc1` [Compound 3, (2S,4R)-1-((S)-17-(tert-butyl)-3-(4-((E)-3-(hydroxyamino)-3-oxoprop-1-en-1-yl)benzyl)-1-(1H-indol-3-yl)-15-oxo-6,9,12-trioxa-3,16-diazaoctadecan-18-oyl)-4-hydroxy-N—((S)-1-(4-(4-methylthiazol-5-yl)phenyl)ethyl)pyrrolidine-2-carboxamide] gave an IC50 in test [1] of 15.1 µM. In test [2], the “HDAC3 protein levels, relative protein abundance compared to DMSO control” value was “significant and selective reduction”. The compound `Cc1ncsc1-c1ccc([C@H](C)NC(=O)[C@@H]2C[C@@H](O)CN2C(=O)[C@@H](NC(=O)CCOCCOCCOCCOCCN(CCc2c[nH]c3ccccc23)Cc2ccc(/C=C/C(=O)NO)cc2)C(C)(C)C)cc1` [Compound 4] registered an IC50 in test [1] of 22.9 µM. In the case of `Cc1ncsc1-c1ccc([C@H](C)NC(=O)[C@@H]2C[C@@H](O)CN2C(=O)[C@@H](NC(=O)CCOCCOCCOCCOCCOCCN(CCc2c[nH]c3ccccc23)Cc2ccc(/C=C/C(=O)NO)cc2)C(C)(C)C)cc1` [Compound 5, (2S,4R)-1-((S)-23-(tert-butyl)-3-(4-((E)-3-(hydroxyamino)-3-oxoprop-1-en-1-yl)benzyl)-1-(1H-indol-3-yl)-21-oxo-6,9,12,15,18-pentaoxa-3,22-diazatetracosan-24-oyl)-4-hydroxy-N—((S)-1-(4-(4-methylthiazol-5-yl)phenyl)ethyl)pyrrolidine-2-carboxamide], the IC50 in test [1] was found to be 19.3 µM. Besides, in test [2], the “HDAC3 protein levels, relative protein abundance compared to DMSO control” value is “significant and selective reduction”. Take `Cc1ncsc1-c1ccc(CNC(=O)[C@@H]2C[C@@H](O)CN2C(=O)[C@@H](NC(=O)C2(F)CC2)C(C)(C)C)c(OCCOCCOCCN(CCc2c[nH]c3ccccc23)Cc2ccc(/C=C/C(=O)NO)cc2)c1` [Compound 8, (2S,4R)—N-(2-(2-(2-(2-((2-(1H-indol-3-yl)ethyl)(4-((E)-3-(hydroxyamino)-3-oxoprop-1-en-1-yl)benzyl)amino)ethoxy)ethoxy)ethoxy)-4-(4-methylthiazol-5-yl)benzyl)-1-((S)-2-(1-fluorocyclopropane-1-carboxamido)-3,3-dimethylbutanoyl)-4-hydroxypyrrolidine-2-carboxamide]: in test [1], half-maximal inhibition (IC50) required 10.1 µM. For `Cc1ncsc1-c1ccc([C@H](C)NC(=O)[C@@H]2C[C@@H](O)CN2C(=O)[C@@H](NC(=O)CCOCCOCCN(CCc2c[nH]c3ccccc23)Cc2ccc(/C=C/C(=O)Nc3ccccc3N)cc2)C(C)(C)C)cc1` [Compound 10], the midpoint of inhibition in test [1], the IC50, lay at 9 µM. Besides, the “HDAC3 protein levels, relative protein abundance compared to DMSO control” value in test [2] is “significant and selective reduction”. For the compound `Cc1ncsc1-c1ccc([C@H](C)NC(=O)[C@@H]2C[C@@H](O)CN2C(=O)[C@@H](NC(=O)CCOCCOCCOCCN(CCc2c[nH]c3ccccc23)Cc2ccc(/C=C/C(=O)Nc3ccccc3N)cc2)C(C)(C)C)cc1` [Compound 11, (2S,4R)-1-((S)-3-(4-((E)-3-((2-aminophenyl)amino)-3-oxoprop-1-en-1-yl)benzyl)-17-(tert-butyl)-1-(1H-indol-3-yl)-15-oxo-6,9,12-trioxa-3,16-diazaoctadecan-18-oyl)-4-hydroxy-N—((S)-1-(4-(4-methylthiazol-5-yl)phenyl)ethyl)pyrrolidine-2-carboxamide], the “HDAC3 protein levels, relative protein abundance compared to DMSO control” value in test [2] was “significant and selective reduction”. Regarding `Cc1ncsc1-c1ccc([C@H](C)NC(=O)[C@@H]2C[C@@H](O)CN2C(=O)[C@@H](NC(=O)CCOCCOCCOCCOCCN(CCc2c[nH]c3ccccc23)Cc2ccc(/C=C/C(=O)Nc3ccccc3N)cc2)C(C)(C)C)cc1` [Compound 12, (2S,4R)-1-((S)-3-(4-((E)-3-((2-aminophenyl)amino)-3-oxoprop-1-en-1-yl)benzyl)-20-(tert-butyl)-1-(1H-indol-3-yl)-18-oxo-6,9,12,15-tetraoxa-3,19-diazahenicosan-21-oyl)-4-hydroxy-N—((S)-1-(4-(4-methylthiazol-5-yl)phenyl)ethyl)pyrrolidine-2-carboxamide], the “HDAC3 protein levels, relative protein abundance compared to DMSO control” value in test [2] was “significant and selective reduction”.

The IC50 is the concentration that gives 50% inhibition. A lower IC50 goes with greater potency in that assay.

These data come from patent publication US20220401564A1 (DANA-FARBER CANCER INSTITUTE, INC., priority 2019, published 2022).
